What was measured:
[1] = biological target: T1, human TRPV1 (Homo sapiens (Human), UniProt Q8NER1); test: Acid Activation Assay (pH 5.0, intracellular Ca2+, FLIPR); type: cell-based; settings: percentage of the maximal pH 5.0-induced response remaining; recombinant HEK293 hTRPV1 cells; maximum concentration tested 37.5 μM
Outline: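 Readout: peak [Ca2+]i fluorescence over baseline on FLIPR, expressed as percentage remaining of the maximal pH 5.0-evoked signal. Stable hTRPV1-HEK293 cells with Calcium-4 dye received compound (12 half-log concentrations, maximum 37.5 μM) 3 min before acidic pH 5.0 buffer.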

[2] = biological target: T1, human TRPV1; test: Capsaicin Activation Assay (intracellular Ca2+, FLIPR); type: cell-based; settings: recombinant HEK293 cells expressing hTRPV1, 50 nM capsaicin
Outline: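 Ca2+ fluorescence was recorded by FLIPR every 1 to 5 seconds in HEK293 cells, clonally selected for stable human TRPV1 expression and plated one day ahead. Test compounds came as serial dilutions of 10 mM DMSO stocks.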

T1 sequence (Q8NER1 whole entry): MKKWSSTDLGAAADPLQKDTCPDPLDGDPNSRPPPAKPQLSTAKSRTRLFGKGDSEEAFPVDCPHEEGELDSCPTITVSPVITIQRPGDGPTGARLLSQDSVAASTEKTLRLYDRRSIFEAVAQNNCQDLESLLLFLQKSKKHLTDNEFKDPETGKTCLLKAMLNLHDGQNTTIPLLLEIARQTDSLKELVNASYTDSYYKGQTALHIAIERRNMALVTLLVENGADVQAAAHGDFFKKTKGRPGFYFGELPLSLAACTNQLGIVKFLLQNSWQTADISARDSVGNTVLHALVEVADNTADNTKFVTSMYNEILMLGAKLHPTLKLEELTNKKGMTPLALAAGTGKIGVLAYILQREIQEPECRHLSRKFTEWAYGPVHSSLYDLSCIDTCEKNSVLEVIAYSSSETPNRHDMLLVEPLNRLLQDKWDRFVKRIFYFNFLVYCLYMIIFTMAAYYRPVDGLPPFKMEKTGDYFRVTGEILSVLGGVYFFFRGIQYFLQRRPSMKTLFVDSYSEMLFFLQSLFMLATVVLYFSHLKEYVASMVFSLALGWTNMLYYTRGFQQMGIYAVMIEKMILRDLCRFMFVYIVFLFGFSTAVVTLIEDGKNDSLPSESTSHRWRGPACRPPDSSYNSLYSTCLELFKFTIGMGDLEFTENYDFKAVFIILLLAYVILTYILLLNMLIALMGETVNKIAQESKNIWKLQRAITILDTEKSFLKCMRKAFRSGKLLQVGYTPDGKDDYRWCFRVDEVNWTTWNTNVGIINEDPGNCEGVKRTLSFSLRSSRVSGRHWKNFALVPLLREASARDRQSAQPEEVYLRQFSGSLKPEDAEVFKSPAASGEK

SMILES | human TRPV1 H^+ (max % remain) [1] [%] | IC50 [2] [nM]
C[C@@]1(CF)C[C@@H](NC(=O)Nc2ccc3c(c2)NC(=O)CC3)c2ccc(Cl)cc2O1 [Example 246, 1-[(2S,4R)-7-chloro-2-(fluoromethyl)-2-methyl-3,4-dihydro-2H-chromen-4-yl]-3-(2-oxo-1,2,3,4-tetrahydroquinolin-7-yl)urea] | 33 | 130
CC1(C)C[C@@H](NC(=O)Nc2ccc3c(c2)NC(=O)CC3)c2ccc(Cl)cc2O1 [Example 235, 1-[(4R)-7-chloro-2,2-dimethyl-3,4-dihydro-2H-chromen-4-yl]-3-(2-oxo-1,2,3,4-tetrahydroquinolin-7-yl)urea] | 29 | 1300
O=C(Nc1ccc2c(c1)NC(=O)N(CCO)C2)N[C@@H]1CC2(CCCC2)Oc2ccccc21 [Example 317, 1-[(4R)-3,4-dihydrospiro[chromene-2,1′-cyclopentan]-4-yl]-3-[3-(2-hydroxyethyl)-2-oxo-1,2,3,4-tetrahydroquinazolin-7-yl]urea] | 17 | 600
CN1C(=O)NCc2c(NC(=O)N[C@H]3CCOc4cc(OC(F)(F)F)ccc43)cccc21 [Example 169, 1-(1-methyl-2-oxo-1,2,3,4-tetrahydroquinazolin-5-yl)-3-[(4S)-7-(trifluoromethoxy)-3,4-dihydro-2H-chromen-4-yl]urea] | 96 | > 38000
O=C1COc2ccc(NC(=O)N[C@@H]3CCOc4ccc(F)cc43)cc2N1 [Example 118, 1-[(4R)-6-fluoro-3,4-dihydro-2H-chromen-4-yl]-3-(3-oxo-3,4-dihydro-2H-1,4-benzoxazin-6-yl)urea] | 101 | > 38000
O=C1COc2ccc(NC(=O)N[C@@H]3CCc4cc(Cl)ccc43)cc2N1 [Example 119, 1-[(1R)-5-chloro-2,3-dihydro-1H-inden-1-yl]-3-(3-oxo-3,4-dihydro-2H-1,4-benzoxazin-6-yl)urea] | 110 | 170
CN1Cc2ccc(NC(=O)N[C@@H]3CC(CF)(CF)Oc4cc(F)ccc43)cc2NC1=O [Example 209, 1-[(4R)-7-fluoro-2,2-bis(fluoromethyl)-3,4-dihydro-2H-chromen-4-yl]-3-(3-methyl-2-oxo-1,2,3,4-tetrahydroquinazolin-7-yl)urea] | 57 | 290
CC1(C)C[C@@H](NC(=O)Nc2ccc3c(c2)NC(=O)N(CCO)C3)c2ccc(C(F)(F)F)nc2O1 [Example 62, 1-[(4R)-2,2-dimethyl-7-(trifluoromethyl)-3,4-dihydro-2H-pyrano[2,3-b]pyridin-4-yl]-3-[3-(2-hydroxyethyl)-2-oxo-1,2,3,4-tetrahydroquinazolin-7-yl]urea] | 9 | 1500
CN1Cc2ccc(NC(=O)N[C@@H]3CC4(CCCC4)Oc4ccccc43)cc2NC1=O [Example 205, 1-[(4R)-3,4-dihydrospiro[chromene-2,1′-cyclopentan]-4-yl]-3-(3-methyl-2-oxo-1,2,3,4-tetrahydroquinazolin-7-yl)urea] | 56 | 400
CCC1(CC)C[C@@H](NC(=O)Nc2ccc3c(c2)NC(=O)CO3)c2ccc(Cl)cc2O1 [Example 104, 1-[(4R)-7-chloro-2,2-diethyl-3,4-dihydro-2H-chromen-4-yl]-3-(3-oxo-3,4-dihydro-2H-1,4-benzoxazin-6-yl)urea] | 80 | 200
C[C@]1(C(F)F)C[C@@H](NC(=O)Nc2ccc3c(c2)NC(=O)N(CCO)C3)c2ccccc2O1 [Example 60, 1-[(2R,4R)-2-(difluoromethyl)-2-methyl-3,4-dihydro-2H-chromen-4-yl]-3-[3-(2-hydroxyethyl)-2-oxo-1,2,3,4-tetrahydroquinazolin-7-yl]urea] | 9 | 1300
CCC1(CC)C[C@@H](NC(=O)Nc2ccc3c(c2)N(C)C(=O)CC3)c2cccc(F)c2O1 [Example 259, 1-[(4R)-2,2-diethyl-8-fluoro-3,4-dihydro-2H-chromen-4-yl]-3-(1-methyl-2-oxo-1,2,3,4-tetrahydroquinolin-7-yl)urea] | 89 | 4700
CN1Cc2ccc(NC(=O)N[C@@H]3CC(CF)(CF)Oc4cc(Cl)ccc43)cc2NC1=O [Example 170, 1-[(4R)-7-chloro-2,2-bis(fluoromethyl)-3,4-dihydro-2H-chromen-4-yl]-3-(3-methyl-2-oxo-1,2,3,4-tetrahydroquinazolin-7-yl)urea] | 16 | 130
CN1C(=O)CCc2ccc(NC(=O)N[C@H]3CC4(CCC4)Oc4ccc(F)cc43)cc21 [Example 286, 1-[(4S)-6-fluoro-3,4-dihydrospiro[chromene-2,1′-cyclobutan]-4-yl]-3-(1-methyl-2-oxo-1,2,3,4-tetrahydroquinolin-7-yl)urea] | 68 | 260
C[C@@]1(CF)C[C@@H](NC(=O)Nc2ccc3c(c2)NC(=O)CO3)c2ccc(Cl)cc2O1 [Example 129, 1-[(2S,4R)-7-chloro-2-(fluoromethyl)-2-methyl-3,4-dihydro-2H-chromen-4-yl]-3-(3-oxo-3,4-dihydro-2H-1,4-benzoxazin-6-yl)urea] | 97 | 120
CCC1(CC)C[C@@H](NC(=O)Nc2ccc3c(c2)NC(=O)CC3)c2ccc(Cl)c(Cl)c2O1 [Example 226, 1-[(4R)-7,8-dichloro-2,2-diethyl-3,4-dihydro-2H-chromen-4-yl]-3-(2-oxo-1,2,3,4-tetrahydroquinolin-7-yl)urea] | 12 | 100
CC1(C)C[C@@H](NC(=O)Nc2ccc3c(c2)NC(=O)CO3)c2cccc(F)c2O1 [Example 100, 1-[(4R)-8-fluoro-2,2-dimethyl-3,4-dihydro-2H-chromen-4-yl]-3-(3-oxo-3,4-dihydro-2H-1,4-benzoxazin-6-yl)urea] | 95 | 310

These reach a lower IC50 [2]. Values come first.

human TRPV1 H^+ (max % remain) [1] [%] | IC50 [2] [nM] | SMILES
58 | 41 | Cn1c(=O)ccc2c(NC(=O)N[C@@H]3CC(C)(C)Oc4ccccc43)cccc21 [Example 77, 1-[(4R)-2,2-dimethyl-3,4-dihydro-2H-chromen-4-yl]-3-(1-methyl-2-oxo-1,2-dihydroquinolin-5-yl)urea]
0 | 91 | O=C(Nc1cccc2[nH]c(=O)ccc12)N[C@@H]1CC(CF)(CF)Oc2cc(Cl)ccc21 [Example 99, 1-[(4R)-7-chloro-2,2-bis(fluoromethyl)-3,4-dihydro-2H-chromen-4-yl]-3-(2-oxo-1,2-dihydroquinolin-5-yl)urea]
36 | 47 | CN1C(=O)NCc2c(NC(=O)N[C@@H]3CC(C)(C)Oc4ccc(F)cc43)cccc21 [Example 157, 1-[(4R)-6-fluoro-2,2-dimethyl-3,4-dihydro-2H-chromen-4-yl]-3-(1-methyl-2-oxo-1,2,3,4-tetrahydroquinazolin-5-yl)urea]
5 | 20 | CN1C(=O)CCc2ccc(NC(=O)N[C@@H]3CC(CF)(CF)Oc4cc(Cl)ccc43)cc21 [Example 255, 1-[(4R)-7-chloro-2,2-bis(fluoromethyl)-3,4-dihydro-2H-chromen-4-yl]-3-(1-methyl-2-oxo-1,2,3,4-tetrahydroquinolin-7-yl)urea]
44 | 35 | CCC1(CC)C[C@@H](NC(=O)Nc2ccc3c(c2)NC(=O)CC3)c2ccc(C(F)(F)F)cc2O1 [Example 224, 1-[(4R)-2,2-diethyl-7-(trifluoromethyl)-3,4-dihydro-2H-chromen-4-yl]-3-(2-oxo-1,2,3,4-tetrahydroquinolin-7-yl)urea]
20 | 16 | CCC1(CC)C[C@@H](NC(=O)Nc2cccc3c2CNC(=O)N3C)c2cc(F)ccc2O1 [Example 155, 1-[(4R)-2,2-diethyl-6-fluoro-3,4-dihydro-2H-chromen-4-yl]-3-(1-methyl-2-oxo-1,2,3,4-tetrahydroquinazolin-5-yl)urea]
0 | 57 | O=C(Nc1ccc2c(c1)NC(=O)N(CCO)C2)N[C@@H]1CC(CF)(CF)Oc2ccccc21 [Example 314, 1-[(4R)-2,2-bis(fluoromethyl)-3,4-dihydro-2H-chromen-4-yl]-3-[3-(2-hydroxyethyl)-2-oxo-1,2,3,4-tetrahydroquinazolin-7-yl]urea]
50 | 16 | Cn1c(=O)ccc2c(NC(=O)N[C@@H]3CC(C)(C)Oc4cc(Cl)ccc43)cccc21 [Example 23, 1-[(4R)-7-chloro-2,2-dimethyl-3,4-dihydro-2H-chromen-4-yl]-3-(1-methyl-2-oxo-1,2-dihydroquinolin-5-yl)urea]
81 | 53 | CN1C(=O)CCc2ccc(NC(=O)N[C@@H]3CC(C)(C)Oc4ccc(F)cc43)cc21 [Example 274, 1-[(4R)-6-fluoro-2,2-dimethyl-3,4-dihydro-2H-chromen-4-yl]-3-(1-methyl-2-oxo-1,2,3,4-tetrahydroquinolin-7-yl)urea]
32 | 31 | CN1C(=O)NCc2c(NC(=O)N[C@@H]3CC(C)(C)Oc4c(F)cccc43)cccc21 [Example 135, 1-[(4R)-8-fluoro-2,2-dimethyl-3,4-dihydro-2H-chromen-4-yl]-3-(1-methyl-2-oxo-1,2,3,4-tetrahydroquinazolin-5-yl)urea]
17 | 29 | CCC1(CC)C[C@@H](NC(=O)Nc2cccc3c2ccc(=O)n3C)c2ccc(Cl)cc2O1 [Example 70, 1-[(4R)-7-chloro-2,2-diethyl-3,4-dihydro-2H-chromen-4-yl]-3-(1-methyl-2-oxo-1,2-dihydroquinolin-5-yl)urea]

From US8969325B2, “TRPV1 antagonists” (AbbVie Inc., priority 2011, dated 2015)
